SMILES strings stand for the structures. Counter-ions that a name gives are not always drawn.

Assay in the first series: not given
A word on the melting point: it is the temperature of the solid-liquid transition. In turn, `CCC[C@@H](C)C[C@H](N)CC(=O)O.Cl` displayed a melting point of 142.5 to 142.7 °C.

Take `CCCC(C)(C)CC(CN)C(=O)O.Cl` (stereo not drawn): the melting point fell in the range of 229.5 to 231 °C.

Molecule `CCCC(C)(C)C[C@H](N)CC(=O)O` (as salt: hydrochloride) (hydrate or solvate) registered a melting point of 194.2 to 195.2 °C.

Regarding `CCCC[C@@H](C)C[C@H](N)CC(=O)O` (as salt: hydrochloride), the melting point was in the range of 142.5 to 143.3 °C.

The molecule `CCC[C@@H](C)C[C@H](CN)C(=O)O` (as salt: hydrochloride) returned a melting point of 226.3 to 228 °C.

The nature of a further series: Plasma concentration (Cmax) of gabapentin in the rat.
Broadly, the Cmax is the highest concentration seen after dosing. `NCC1(CC(=O)O)CCCCC1` [gabapentin, 1-(aminomethyl)-cyclohexylacetic acid]: the highest concentration (Cmax) lay within 520 to 10500 ng/mL.

The values above are taken from US20050065176A1, “Combinations” (priority 2003, published 2005).
